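Exposure lasted 48 hours, with cells grown in 96-well plates and compounds tested at five concentrations. Abbreviation: GI50, concentration required for 50% inhibition of growth. The concentration for full growth arrest is given as TGI.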
Tests used:
Assay in all cases: DTP human tumour cell line panel, 48 h
RPMI-8226 leukemia = test system: RPMI-8226 leukemia
UACC-257 melanoma = test system: UACC-257 melanoma
OVCAR-5 ovarian = test system: OVCAR-5 ovarian
MDA-MB-231 breast = test system: MDA-MB-231 breast
UACC-62 melanoma = test system: UACC-62 melanoma
HS 578T breast = test system: HS 578T breast
ACHN renal = test system: ACHN renal
TK-10 renal = test system: TK-10 renal
MOLT-4 leukemia = test system: MOLT-4 leukemia
HCT-116 colon = test system: HCT-116 colon
RXF 393 renal = test system: RXF 393 renal
M14 melanoma = test system: M14 melanoma
SK-MEL-5 melanoma = test system: SK-MEL-5 melanoma
PC-3 prostate = test system: PC-3 prostate
786-0 renal = test system: 786-0 renal
SK-MEL-28 melanoma = test system: SK-MEL-28 melanoma
UO-31 renal = test system: UO-31 renal
NCI-H226 lung = test system: NCI-H226 lung
SNB-19 CNS = test system: SNB-19 CNS
HCT-15 colon = test system: HCT-15 colon
OVCAR-3 ovarian = test system: OVCAR-3 ovarian
NCI/ADR-RES ovarian = test system: NCI/ADR-RES ovarian
SW-620 colon = test system: SW-620 colon
SNB-75 CNS = test system: SNB-75 CNS
A498 renal = test system: A498 renal
HOP-92 NSCLC = test system: HOP-92 NSCLC
NCI-H522 lung = test system: NCI-H522 lung
SR leukemia = test system: SR leukemia
SN12C renal = test system: SN12C renal

For `COc1ccc2nc(NNC(=O)c3cnccn3)c3cccn3c2c1`, the GI50 (RPMI-8226 leukemia) was 312 nM, the TGI (RPMI-8226 leukemia) was over 100000 nM and the GI50 (UACC-257 melanoma) was 689 nM. For the same molecule, the TGI (UACC-257 melanoma) was 7620 nM, the GI50 (OVCAR-5 ovarian) was 704 nM and the TGI (OVCAR-5 ovarian) was over 100000 nM. The GI50 (MDA-MB-231 breast) was 833 nM, the TGI (MDA-MB-231 breast) was 17600 nM and the GI50 (UACC-62 melanoma) was 278 nM. It also gave a TGI (UACC-62 melanoma) of 2480 nM, a GI50 (HS 578T breast) of 2450 nM and a TGI (HS 578T breast) of over 59900 nM. The GI50 (ACHN renal) was 114 nM, the TGI (ACHN renal) was 7520 nM and the GI50 (TK-10 renal) was 329 nM. The TGI (TK-10 renal) was over 100000 nM, the GI50 (MOLT-4 leukemia) was 201 nM and the TGI (MOLT-4 leukemia) was over 100000 nM. For the same molecule, the GI50 (HCT-116 colon) was 195 nM, the TGI (HCT-116 colon) was 5260 nM and the GI50 (RXF 393 renal) was 663 nM. The TGI (RXF 393 renal) was 7590 nM, the GI50 (M14 melanoma) was 208 nM and the TGI (M14 melanoma) was 2850 nM. The GI50 (SK-MEL-5 melanoma) was 537 nM, the TGI (SK-MEL-5 melanoma) was 4390 nM and the GI50 (PC-3 prostate) was 227 nM. The TGI (PC-3 prostate) was over 100000 nM, the GI50 (786-0 renal) was 321 nM and the TGI (786-0 renal) was 5610 nM. For the same molecule, the GI50 (SK-MEL-28 melanoma) was 382 nM, the TGI (SK-MEL-28 melanoma) was 29800 nM and the GI50 (UO-31 renal) was 110 nM. For the same molecule, the TGI (UO-31 renal) was 4980 nM, the GI50 (NCI-H226 lung) was 428 nM and the TGI (NCI-H226 lung) was 6820 nM. The GI50 (SNB-19 CNS) was 350 nM, the TGI (SNB-19 CNS) was 28000 nM and the GI50 (HCT-15 colon) was 61.1 nM. It also gave a TGI (HCT-15 colon) of 2460 nM, a GI50 (OVCAR-3 ovarian) of 236 nM and a TGI (OVCAR-3 ovarian) of over 22300 nM. For the same molecule, the GI50 (NCI/ADR-RES ovarian) was 207 nM, the TGI (NCI/ADR-RES ovarian) was 2090 nM and the GI50 (SW-620 colon) was 315 nM. The GI50 (SNB-75 CNS) was 408 nM, the TGI (SNB-75 CNS) was 9310 nM and the GI50 (A498 renal) was 684 nM. The TGI (A498 renal) was 9500 nM, the GI50 (HOP-92 NSCLC) was 930 nM and the TGI (HOP-92 NSCLC) was 9650 nM. For the same molecule, the GI50 (NCI-H522 lung) was 363 nM, the TGI (NCI-H522 lung) was 11500 nM and the GI50 (SR leukemia) was 121 nM. The TGI (SR leukemia) was over 100000 nM, the GI50 (SN12C renal) was 426 nM and the TGI (SN12C renal) was 13900 nM.
